Here are results for six compounds from article PMC5413848, “Optimization of intestinal microsomal preparation in the rat: A systematic approach to assess the influence of various methodologies on metabolic activity and scaling factors” (Biopharmaceutics & Drug Disposition, 2017).

On the set-up of data set [1]: method as in PMID 11587497. Particulars: cited from earlier work.
Details of data set [2]: method as in PMID 11587497. Particulars: Wistar rat intestinal microsomes prepared by elution, 30 cm intestine; cited from earlier work.
A short description of data set [3]: CYP activity: testosterone metabolite formation in rat intestinal microsomes. The format is in vitro ADME. Particulars: for Maximal rate of testosterone metabolite formation: 100 μM testosterone, 1 mg/ml. As for the experimental part:
The CYP enzyme activities were determined for the in‐house and commercial intestinal microsomes using the probe substrate testosterone. Testosterone metabolites and the respective rat cyp isoforms responsible for their formation are shown in Supplemental material Table 1 33. […] The reactions were initiated by the addition of testosterone. Samples were taken at 5, 15, 30 and 60 min. […] Following optimization of the bioanalytical methodology to improve reproducibility and sensitivity based on increasing the efficiency of protein precipitation 37, the samples were quenched 1:2 (sample: quench) in ice cold acetonitrile containing internal standard (1 μM 11‐β OH TEST) and stored overnight at −20°C. The following day, the plates were spun at 3000 rpm for 15 min, and 50 μl supernatant was diluted in 200 μl UPH2O. Samples were quantified using a Waters Acquity UPLC system with a PDA coupled to a G2 Q‐ToF MS (Waters, Milford, MA, USA), and a Acquity UPLC BEH C18 column, 130 Å, 1.7 μm, 2.1 mm × 100 mm and Acquity UPLC column with an in‐Line Filter Kit made up of the same phase (Waters). The sample (25 μl) was detected using an electrospray interface in positive mode, and source and desolvation temperatures, and desolvation and cone gas flows were 120°C and 400°C, and 800 l/h and 20 l/h, respectively. The cone voltage was 30 V. The elution times and LLOQ of testosterone and its hydroxy metabolites are shown in Supplemental material Table 2. The quantification of testosterone metabolites listed in Supplemental material Table 1 was made using standard curves (5–5000 pmol/ml) prepared from no cofactor added microsomes and prepared identically to the assay samples.

A short description of another data set: in vitro. Particulars: Han-Wistar, rat, microsomes, pH 7.4, CL int,u, in-house combined cofactors. The procedure: (§1) Microsomes prepared previously via the optimized method (preparation method 8) were combined to form pool 1 (n = 9 rats). A second set of three preparations was combined to form pool 2 (n = 9 rats). Intestinal microsomes were also prepared from intestinal tissue flash‐frozen in tubes on arrival in the laboratory and kept at −80°C until thawing on ice on the morning of preparation, (n = 3 occasions of n = 3 samples). In addition, for comparative purposes microsomes were also prepared from scraped intestinal tissues. Microsomes were prepared after cutting along the length of intestine and gently scraping the intestinal epithelial with a glass microscope slide (n = 1 occasion, n = 3 samples). Commercially available pooled intestinal microsomes were also used as a comparator to those produced in‐house. […] The microsomes were stored at −80°C prior to experiments.
The microsomes prepared from the final optimized preparation method (method 8) were measured for CYP content on the day of preparation prior to storage. These microsomes (n = 3 samples prepared on n = 3 separate occasions) were subsequently thawed on ice and pooled for pool 1. The pool 1 microsomes were then assayed for testosterone and 4‐NP metabolite formation. Additional intestinal microsomes were created using the identical methodology with the same number of rat intestinal samples (n = 3 samples prepared on n = 3 occasions) and assayed for testosterone and 4‐NP metabolite formation as well as for CYP content on the day of preparation before storage. The microsomes from this second set of preparations were then thawed and pooled to form pool 2.
(§2) Midazolam and 7‐hydroxycoumarin were both incubated at 1 mg/ml and 0.5 mg/ml. The microsomes were incubated on ice with alamethacin (50 μg/mg) for 15 min. […] The samples were quenched with ice cold acetonitrile (3:1 quench to sample) containing the internal standard (AZ1). The total incubation time was 40 min. Quenched samples were stored overnight at −20°C. The following day, the samples were diluted with 200 μl UPH2O, and spun at 3000 rpm (Sorvall legend RT centrifuge) for 15 min, and 200 μl of supernatant taken for analysis.

A short description of data set [4]: In vitro-in vivo extrapolation of rat intestinal unbound intrinsic clearance (CL int,u,gut). The format is in vitro ADME. From the text: The CL int,u values were scaled to give CL int,u,gut using scaling factors for the corresponding microsomal pool (Eq. (5)). The use of scalars from the mean of both pools was also investigated, and was also used for scaling of commercial microsome CL int,u data.
(5) CLint,u,G=CLuint⋅MPPGI⋅Intestine Segment Weight

Data set [5] can be described thus: Nonspecific protein binding in rat intestinal microsomes (96-well micro-equilibrium dialysis). As for the experimental part: Nonspecific protein binding was determined in microsomes (1 mg/ml) using high throughput 96‐well micro‐equilibrium dialysis methodology (HTDialysis, LLC, Gales Ferry, CT, USA). These experiments used dialysis membrane strips with 12–14 kDa molecular mass cut‐off (HTDialysis). The microsomes were constituted in 0.1 M phosphate buffer (pH 7.4). The final concentrations of the test compounds was 1 μM. Microsomes containing the test compound were aliquoted into donor wells in triplicate, and buffer placed in the acceptor wells. The plate was incubated at 37°C and left to equilibrate on a plate shaker (450 rpm) for 4 h. Samples from both the acceptor and donor sides of the membrane were then transferred to 96‐well plates and quenched in acetonitrile containing internal standard (AZ1). The same sample preparation and LC–MS/MS methodology was used as described for the microsomal incubations. Compound MS transitions and retention times are reported in Supplemental material Table 3. Fuinc was calculated as the ratio of acceptor to donor both normalized for internal standard as described previously 41. Correction for protein binding for depletion experiments undertaken at 0.5 mg/ml were made using Equation (4).
(4) fumic,2=1/[P]mic,2/Pmic,1×1−fumic,1/fumic,1+1
where mic,1 denotes 1 mg/ml and mic,2 is 0.5 mg/ml.
For orientation: Equilibrium dialysis compares concentrations on both sides of a semipermeable membrane.

A short description of data set [6]: Substrate depletion in commercial Han Wistar rat intestinal microsomes, combined or individual CYP and UGT cofactors. Particulars: for Main route of elimination (CYP vs UGT cofactors): commercial Han Wistar microsomes, individual cofactors; for microsomal CLint at 1 μM: male, Han Wistar, rat, pH 7.4, CL int,u, Commercial Han Wistar pool, 1 mg/ml, 1 μM compound. As for the experimental part:
as §1, §2

The conditions of data set [7]: previous study, corrected for fu inc of this study; cited from earlier work.
Setting [8] is: Pool 1, FT (1 freeze-thaw cycle).

Several values for one entry are separate records, joined by “and”; a condition that tells them apart may be missing. Identical values can stand only once.

Turning to `O=[N+]([O-])c1ccc(O)cc1` [4‐NP, 4‐nitrophenol], the “4-NP glucuronidation, previously reported” value in data set [1] is on record as 7 ± 0.81 nmol/min/mg.
On to `C[C@]12CC[C@H]3[C@@H](C[C@@H](O)C4=CC(=O)CC[C@@]43C)[C@@H]1CC[C@@H]2O` [6β‐OH TEST], for which the “6β-OH TEST formation, previously reported” value in data set [2] was 289 ± 5 pmol/min/mg. Besides, the “Maximal rate of testosterone metabolite formation” value was 190 ± 53.5 pmol/min/mg in data set [3] (Commercial HW, FT); 167.2 ± 43.7 pmol/min/mg in data set [3] (Commercial SD, FT); 85.3 ± 32.5 pmol/min/mg in data set [3] (setting [8]); 187.5 pmol/min/mg and 187.5 ± 77.8 pmol/min/mg in data set [3] (Pool 2, FT); 113.3 pmol/min/mg and 113.3 ± 30.9 pmol/min/mg in data set [3] (Pool 2, Fresh); 66.1 pmol/min/mg and 66.1 ± 4.8 pmol/min/mg in data set [3] (Scraping, FT). For the same compound, in data set [3], the “Fold higher mean metabolite formation in pool 2 (vs pool 1)” value is recorded as 2.2 fold.
For `C[C@]12CC[C@H]3[C@@H](CCC4=CC(=O)CC[C@@]43C)[C@@H]1C[C@@H](O)[C@@H]2O` [16α‐OH TEST], the “Fold higher mean metabolite formation in pool 2 (vs pool 1)” value in data set [3] is reported as 2.5 fold.
Take `C[C@]12CCC(=O)C=C1CC[C@@H]1[C@@H]2CC[C@]2(C)C(=O)CC[C@@H]12` [Androstenedione]: the “Maximal rate of testosterone metabolite formation” value worked out at 314.5 ± 55.3 pmol/min/mg in data set [3] (Commercial HW, FT); 371.6 ± 7.2 pmol/min/mg in data set [3] (Commercial SD, FT); 560.7 ± 6.6 pmol/min/mg in data set [3] (setting [8]); 548.7 ± 188.7 pmol/min/mg in data set [3] (Pool 2, FT); 429.9 ± 30.9 pmol/min/mg in data set [3] (Pool 2, Fresh); 457.0 ± 60.4 pmol/min/mg in data set [3] (Scraping, FT).
The term microsomal CLint denotes a measure of how fast metabolising enzymes remove a compound, apart from limits set by blood flow. Consider `CCCCc1nc(Cl)c(CO)n1Cc1ccc(-c2ccccc2-c2nn[nH]n2)cc1` [Losartan], for which the intrinsic clearance (microsomal CLint) at 1 μM in “in vitro” (Pool 1) was found to be 34.8 µL/min/mg; in “in vitro” (Pool 2), 14.8 µL/min/mg; in data set [6] (CYP cofactors, CYP cofactors only), 0.1 µL/min/mg; in data set [6] (Combined cofactors, combined CYP and UGT cofactors) it was 10 µL/min/mg; in data set [6] (UGT cofactors, UGT cofactors only), 9 µL/min/mg. For the same compound, the “CL int,u,gut, Mean Han Wistar commercial microsomes” value in data set [4] (microsomes) is 0.04 L/h. In data set [5] (rat, 4 h, 1 μM, pH 7.4), this compound gave a fuinc of 0.87. Further, the “Main route of elimination (CYP vs UGT cofactors)” value in data set [6] is recorded as “glucuronidation”.
Consider `Cc1ncc2n1-c1ccc(Cl)cc1C(c1ccccc1F)=NC2` [Midazolam], for which the microsomal CLint at 1 μM in the data set “in vitro” (Pool 1, pool 1, 1 mg/ml, 1 μM compound, CYP and UGT cofactors) amounted to 22 µL/min/mg; in the data set “in vitro” (Pool 2, pool 2, cell marked with footnotes a and b (1 mg/ml and 0.5 mg/ml), 1 μM compound), 18.2 µL/min/mg; in data set [6] (microsomes, CYP cofactors, CYP cofactors only) it was 18.2 µL/min/mg; in data set [6] (microsomes, Combined cofactors, combined CYP and UGT cofactors), 12.3 µL/min/mg; in data set [6] (microsomes, UGT cofactors, UGT cofactors only) it was 2.8 µL/min/mg. In data set [4] (mean of pool 1 and pool 2 CL int,u and scaling factors), the “CL int,u,gut, Combined in-house pools” value is 6.12 L/h. Further, the “CL int,u,gut, Pool 1 Mean” value in data set [4] (pool 1, pool specific scaling factors, threshold 0.01 l/h) is 4.13 L/h. The “CL int,u,gut, Pool 2 Mean” value in data set [4] (pool 2, pool specific scaling factors, threshold 0.01 l/h) is 7.36 L/h. This compound showed a fuinc in data set [5] (rat intestinal microsomes 1 mg/ml, compound 1 μM) of 0.72. The “Main route of elimination (CYP vs UGT cofactors)” value in data set [6] is recorded as “CYP mediated metabolism”. For the same compound, the “CL int,u in commercially available Sprague-Dawley microsomes” value in data set [7] was 8.3 µL/min/mg.
